Where a name gives a salt, the structure may show the parent alone.
Tests used:
[1] = biological target: T1, full-length proMMP9(1-707) (SEQ ID NO:1) (Homo sapiens, UniProt P14780, R574P); assay: proMMP9/MMP3 P126 Activation Assay; format: biochemical; settings: proMMP9(1-707) from HEK293 cells activated by catalytic MMP3
T1 construct: made in house; host or cells: HEK293 (proMMP9, secreted); E. coli (MMP3)
Method: proMMP9/MMP3 P126 Activation Assay
The reaction volume was 50 μL. […] Reactivity of residual MMP3 towards P-126 substrate was minimal under these conditions.

[2] = biological target: T2, proMMP9(67-444;ΔFnII) (SEQ ID NO:5) (Homo sapiens, UniProt P14780, DEL216-390); assay: ThermoFluor with proMMP9(67-444;ΔFnII); settings: read-out: proMMP9(67-444; ΔFnII) (SEQ ID NO: 5) binding
T2 construct: start methionine (N); made in house; host or cells: E. coli BL21(DE3) RIL
T2 sequence (P14780 with tags, fused parts or gaps DEL216-390): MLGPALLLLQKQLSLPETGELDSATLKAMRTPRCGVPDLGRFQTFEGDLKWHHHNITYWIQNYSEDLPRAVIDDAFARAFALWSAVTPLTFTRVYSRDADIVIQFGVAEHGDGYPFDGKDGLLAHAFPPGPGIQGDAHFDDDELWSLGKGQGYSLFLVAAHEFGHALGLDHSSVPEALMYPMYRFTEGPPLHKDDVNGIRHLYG
Method: (§1) The ThermoFluor® (TF) assay is a 384-well plate-based binding assay that measures thermal stability of proteins (Biomol Screen 2001, 6, 429-40; Biochemistry 2005, 44, 5258-66). The experiments were carried out using instruments available from Johnson & Johnson Pharmaceutical Research & Development, LLC. TF dye used in all experiments was […] (1,8-ANS) (Invitrogen: A-47).
(§2) Compounds were arranged in a pre-dispensed plate (Greiner Bio-one: 781280), wherein compounds were serially diluted in 100% DMSO across 11 columns within a series. Columns 12 and 24 were used as DMSO reference and contained no compound. For multiple compound concentration-response experiments, the compound aliquots (50 nL) were robotically predispensed directly into black 384-well polypropylene PCR microplates (Abgene: TF-0384/k) using a Cartesian Hummingbird liquid handler (DigiLab, Holliston, Mass.). Following compound dispense, protein and dye solutions were added to achieve the final assay volume of 3 μL. The assay solutions were overlayed with 1 μL of silicone oil (Fluka, type DC 200: 85411) to prevent evaporation.
(§3) Assay plates were robotically loaded onto a thermostatically controlled PCR-type thermal block and then heated from 40 to 90° C. at a ramp-rate of 1° C./min for all experiments. Fluorescence was measured by continuous illumination with UV light (Hamamatsu LC6) supplied via fiber optics and filtered through a band-pass filter (380-400 nm; >6 OD cutoff). Fluorescence emission of the entire 384-well plate was detected by measuring light intensity using a CCD camera (Sensys, Roper Scientific) filtered to detect 500±25 nm, resulting in simultaneous and independent readings of all 384 wells. A single image with 20-sec exposure time was collected at each temperature, and the sum of the pixel intensity in a given area of the assay plate was recorded vs temperature and fit to standard equations to yield the Tm (J Biomol Screen 2001, 6, 429-40).
(§4) Thermodynamic parameters necessary for fitting compound binding for each proMMP were estimated by differential scanning calorimetry (DSC) and from ThermoFluor® data. The heat capacity of unfolding for each protein was estimated from the molecular weight and from ThermoFluor® dosing data.
ThermoFluor® with proMMP9(67-444;ΔFnII) (SEQ ID NO:5)
The protein sample preparations had to include a desalting buffer exchange step via a PD-10 gravity column (GE Healthcare). The desalting buffer exchange was performed prior to diluting the protein to the final assay concentration of 3.5 μM proMMP9(67-444;ΔFnII) (SEQ ID NO:5). The concentration of proMMP9(67-444;ΔFnII) (SEQ ID NO:5) was determined spectrophotometrically based on a calculated extinction coefficient of ε280=33900 M^−1cm^−1, a calculated molecular weight of 22.6 kDa, and calculated pI of 5.20. ThermoFluor® reference conditions were defined as follows: 80 μg/mL (3.5 μM) proMMP9(67-444;ΔFnII) (SEQ ID NO:5), 50 μM 1,8-ANS, pH 7.0 Buffer (50 mM HEPES pH 7.0, 100 mM NaCl, 0.001% Tween-20, 2.5 mM MgCl2, 300 μM CaCl2). The thermodynamic parameters for proMMP9(67-444;ΔFnII) (SEQ ID NO:5) are as follows: Tm (° C.)=63 (+/−0.1), ΔUH(Tm) (cal mol^−1)=105000(+/−5000), ΔUS(Tm) (cal mol^−1 K^−1)=450, […].

[3] = biological target: T3, proMMP9(20-445;ΔFnII) (SEQ ID NO:6) (Homo sapiens, UniProt P14780, DEL216-390); assay: ThermoFluor with proMMP9(20-445;ΔFnII); settings: read-out: proMMP9(20-445; ΔFnII) (SEQ ID NO: 6) binding
T3 construct: start methionine (N); made in house; host or cells: E. coli BL21(DE3) RIL
T3 sequence (P14780 with tags, fused parts or gaps DEL216-390): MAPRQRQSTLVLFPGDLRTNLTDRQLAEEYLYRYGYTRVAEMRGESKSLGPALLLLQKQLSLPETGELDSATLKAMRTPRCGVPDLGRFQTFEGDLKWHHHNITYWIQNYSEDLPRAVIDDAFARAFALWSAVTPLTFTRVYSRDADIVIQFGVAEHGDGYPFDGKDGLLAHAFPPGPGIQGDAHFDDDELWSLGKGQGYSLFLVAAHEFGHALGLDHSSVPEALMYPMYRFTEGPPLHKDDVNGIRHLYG
Method: as §1, §2, §3, §4
ThermoFluor® with proMMP9(20-445;ΔFnII) (SEQ ID NO:6)
The protein sample preparations included a desalting buffer exchange step via a PD-10 gravity column (GE Healthcare). The desalting buffer exchange was performed prior to diluting the protein to the final assay concentration of 2.8 μM proMMP9(20-445;ΔFnII) (SEQ ID NO:6). The concentration of proMMP9(20-445;ΔFnII) (SEQ ID NO:6) was determined spectrophotometrically based on a calculated extinction coefficient of ε280=39880 M^−1cm^−1, a calculated molecular weight of 28.2 kDa, and calculated pI of 5.5. ThermoFluor® reference conditions were define as follows: 80 μg/mL (2.8 μM) proMMP9(20-445;ΔFnII) (SEQ ID NO:6), 50 μM 1,8-ANS, pH 7.0 Buffer (50 mM HEPES pH 7.0, 100 mM NaCl, 0.001% Tween-20, 2.5 mM MgCl2, 300 μM CaCl2). The thermodynamic parameters for proMMP9(20-445;ΔFnII) (SEQ ID NO:6) are as follows: Tm (° C.)=72 (+/−0.1), ΔUH(Tm) (cal mol^−1)=160000(+/−5000), ΔUS(Tm) (cal mol^−1 K^−1)=434, ΔUCp (cal mol^−1 K^−1)=2400.

T1 sequence (P14780 20-707 R574P): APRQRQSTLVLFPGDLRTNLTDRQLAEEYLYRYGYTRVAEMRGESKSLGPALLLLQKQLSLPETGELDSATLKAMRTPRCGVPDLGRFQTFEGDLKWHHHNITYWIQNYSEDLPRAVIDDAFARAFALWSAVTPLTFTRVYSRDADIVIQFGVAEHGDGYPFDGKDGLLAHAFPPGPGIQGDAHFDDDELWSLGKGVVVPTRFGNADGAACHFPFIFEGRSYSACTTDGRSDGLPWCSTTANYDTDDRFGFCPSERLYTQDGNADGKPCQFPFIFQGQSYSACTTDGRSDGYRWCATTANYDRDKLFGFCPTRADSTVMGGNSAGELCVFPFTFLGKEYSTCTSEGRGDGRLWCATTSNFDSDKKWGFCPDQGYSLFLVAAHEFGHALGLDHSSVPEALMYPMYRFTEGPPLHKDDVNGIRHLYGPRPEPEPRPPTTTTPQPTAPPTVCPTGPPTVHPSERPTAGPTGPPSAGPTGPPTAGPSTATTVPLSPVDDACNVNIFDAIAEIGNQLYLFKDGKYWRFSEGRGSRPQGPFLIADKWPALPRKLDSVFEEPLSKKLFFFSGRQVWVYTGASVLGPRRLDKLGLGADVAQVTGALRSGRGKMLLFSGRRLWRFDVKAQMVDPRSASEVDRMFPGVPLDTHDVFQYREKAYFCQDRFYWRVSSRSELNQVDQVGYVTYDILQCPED

| IC50 [1] [nM] | Kd [2] [nM] | Kd [3] [nM] | SMILES |
| --- | --- | --- | --- |
| 85 | 100 | 110 | CCN1CCN(c2ccc(-c3csc(Nc4cc(S(N)(=O)=O)ccc4OC(C)C)n3)cc2)CC1 [Example 4, 3-((4-(4-(4-Ethylpiperazin-1-yl)phenyl)thiazol-2-yl)amino)-4-isopropoxybenzenesulfonamide.TFA] |
| 130 | – | – | CC(C)Oc1ccc(S(N)(=O)=O)cc1Nc1nc(-c2ccc(N3CCN(C(C)C)CC3)cc2)cs1 [Example 5, 4-Isopropoxy-3-((4-(4-(4-isopropylpiperazin-1-yl)phenyl)thiazol-2-yl)amino)benzenesulfonamide.TFA] |
| 1200 | 650 | 410 | CC(C)Oc1ccc(S(N)(=O)=O)cc1Nc1nc(-c2ccc(N3CCN(Cc4ccccc4)CC3)cc2)cs1 [Example 6, 3-((4-(4-(4-Benzylpiperazin-1-yl)phenyl)thiazol-2-yl)amino)-4-isopropoxybenzenesulfonamide.TFA] |
| 110 | 67 | 29 | CC(C)Oc1ccc(C(N)=O)cc1Nc1nc(-c2ccc(N3CCN(C)CC3)cc2)cs1 [Example 8, 4-Isopropoxy-3-((4-(4-(4-methylpiperazin-1-yl)phenyl)thiazol-2-yl)amino)benzamide.TFA] |
| 89 | 94 | 34 | CCN1CCN(c2ccc(-c3csc(Nc4cc(C(N)=O)ccc4OC(C)C)n3)cc2)CC1 [Example 9, 3-((4-(4-(4-Ethylpiperazin-1-yl)phenyl)thiazol-2-yl)amino)-4-isopropoxybenzamide.TFA] |
| 740 | 870 | 380 | CC(C)Oc1ccc(C(N)=O)cc1Nc1nc(-c2ccc(N3CCN(Cc4ccccc4)CC3)cc2)cs1 [Example 11, 3-((4-(4-(4-Benzylpiperazin-1-yl)phenyl)thiazol-2-yl)amino)-4-isopropoxybenzamide.TFA] |
| 34 | – | – | CCN1CC=C(c2ccc(-c3csc(Nc4cc(S(N)(=O)=O)ccc4OC(C)C)n3)cc2)CC1 [Example 14, 3-((4-(4-(1-Ethyl-1,2,3,6-tetrahydropyridin-4-yl)phenyl)thiazol-2-yl)amino)-4-isopropoxybenzenesulfonamide.TFA] |
| 28 | 18 | 17 | CC(C)Oc1ccc(S(N)(=O)=O)cc1Nc1nc(-c2ccc(C3=CCN(C(C)C)CC3)cc2)cs1 [Example 15, 4-Isopropoxy-3-((4-(4-(1-isopropyl-1,2,3,6-tetrahydropyridin-4-yl)phenyl)thiazol-2-yl)amino)benzenesulfonamide.TFA] |
| 49 | 33 | 14 | CC(C)Oc1ccc(C(N)=O)cc1Nc1nc(-c2ccc(C3=CCNCC3)cc2)cs1 [Example 16, 4-Isopropoxy-3-((4-(4-(1,2,3,6-tetrahydropyridin-4-yl)phenyl)thiazol-2-yl)amino)benzamide.TFA] |
| 92 | 69 | 380 | CCOc1ccncc1Nc1nc(-c2ccc(C3=CCNCC3)cc2)cs1 [Example 20, N-(4-Ethoxypyridin-3-yl)-4-(4-(1,2,3,6-tetrahydropyridin-4-yl)phenyl)thiazol-2-amine.TFA] |
| 57 | > 76000 | 400 | CCOc1ccncc1Nc1nc(-c2ccc(C3=CCN(C)CC3)cc2)cs1 [Example 21, N-(4-Ethoxypyridin-3-yl)-4-(4-(1-methyl-1,2,3,6-tetrahydropyridin-4-yl)phenyl)thiazol-2-amine] |
| 130 | – | – | CC(C)Oc1ccc(S(N)(=O)=O)cc1Nc1nc(-c2ccc(C3CCNCC3)cc2)cs1 [Example 24, 4-Isopropoxy-3-((4-(4-(piperidin-4-yl)phenyl)thiazol-2-yl)amino)benzenesulfonamide.TFA] |
| 69 | 30 | 27 | CC(C)Oc1ccc(S(N)(=O)=O)cc1Nc1nc(-c2ccc(C3CCN(C)CC3)cc2)cs1 [Example 25, 4-Isopropoxy-3-((4-(4-(1-methylpiperidin-4-yl)phenyl)thiazol-2-yl)amino)benzenesulfonamide.TFA] |
| 44 | 46 | 25 | CCN1CCC(c2ccc(-c3csc(Nc4cc(S(N)(=O)=O)ccc4OC(C)C)n3)cc2)CC1 [Example 26, 3-((4-(4-(1-Ethylpiperidin-4-yl)phenyl)thiazol-2-yl)amino)-4-isopropoxybenzenesulfonamide.TFA] |
| 64 | – | – | CC(C)Oc1ccc(S(N)(=O)=O)cc1Nc1nc(-c2ccc(C3CCN(C(C)C)CC3)cc2)cs1 [Example 27, 4-Isopropoxy-3-((4-(4-(1-isopropylpiperidin-4-yl)phenyl)thiazol-2-yl)amino)benzenesulfonamide.TFA] |
| 100 | 110 | 75 | CC(C)Oc1ccc(S(N)(=O)=O)cc1Nc1nc(-c2ccc(OCCN3CCOCC3)cc2)cs1 [Example 28, 4-Isopropoxy-3-((4-(4-(2-morpholinoethoxy)phenyl)thiazol-2-yl)amino)benzenesulfonamide.TFA] |
| 150 | 100 | 28 | CC(C)Oc1ccc(C(N)=O)cc1Nc1nc(-c2ccc(OCCN3CCOCC3)cc2)cs1 [Example 29, 4-Isopropoxy-3-((4-(4-(2-morpholinoethoxy)phenyl)thiazol-2-yl)amino)benzamide.TFA] |
| 1100 | 1300 | 1200 | NS(=O)(=O)c1ccc(OC(F)(F)F)c(Nc2nc(-c3ccc(OCCN4CCOCC4)cc3)cs2)c1 [Example 30, 3-((4-(4-(2-Morpholinoethoxy)phenyl)thiazol-2-yl)amino)-4-(trifluoromethoxy)benzenesulfonamide.TFA] |

Reference: patent US20120302569A1, “PHENYL-THIAZOLYL INHIBITORS OF PRO-MATRIX METALLOPROTEINASE ACTIVATION” (priority 2011, published 2012)
